Patent US9371539B2, “DNA encoding ring zinc-finger protein and the use of the DNA in vectors and bacteria and in plants” (Board of Trustees of Michigan State University, priority 2006, dated 2016)

B1: XERICO: protein encoded by Arabidopsis thaliana gene AT2G04240; 162 amino acids, RING-H2 zinc-finger motif (protein)
chain: MGLSSLPGPSEGMLCVILVNTALSISIVKGIVRSFLGIVGISLSPSSSSPSSVTVSSENSSTSESFDFRVCQPESYLEEFRNRTPTLRFESLCRCKKQADNECSVCLSKFQGDSEINKLKCGHLFHKTCLEKWIDYWNITCPLCRTPLVVVPEDHQLSSNVW

Key:
Arabidopsis thaliana [1] = test: Effect of ABA on early seedling growth and cotyledon opening; format: in vivo
Procedure: (§1) Arabidopsis thaliana, ecotype Columbia (Col), was used as the wild-type plant for phenotypic assays for comparison to transgenic 35S::XERICO Arabidopsis thaliana, plants in these experiments. Unless noted otherwise, plants were grown under sterile conditions on MS nutrient agar media (1×MS basal medium (Sigma, stock number M5519) with 2% sucrose and 0.3% phytagel (Sigma) containing 2% sucrose or on soil in a growth chamber (16 h light/8 h dark) at 23° C., after stratification. For monitoring of hypocotyl elongation and root growth with response salt/osmotic stress, a minimum of 20 seeds were sowed on MS nutrient agar media containing specified treatments, following which the plates were held in the vertical position for 7 days. For testing the effects of ABA on germination and early seedling growth, seeds were grown horizontally. For abiotic stress treatments, wild-type seedlings were grown on MS nutrient agar media containing 2% sucrose for 10-days and then treated the stresses indicated in FIG. 1, for up to 24 hour without a treatment control. Samples were collected at the indicated time and frozen immediately in liquid N2 and were stored at −80° C. until use. Experiments were performed in triplicates and repeated at least three times.
(§2) Since the hypersensitivity to salt or osmotic stress was the most prominent phenotype of the three independent T3 homozygous lines of 35S::XERICO plants, the functional relationship of the gene with ABA, a plant stress hormone involved in salt and drought stress adaptation, was investigated. […] Although 35S::XERICO plants germinated slightly later than wild-type even in the absence of exogenous ABA (FIG. 3c), germination was further delayed following ABA treatment. At 0.1 μM of ABA, 13% of 35S::XERICO plants were germinated 1.5 day after sowing, while 43% of wild-type seeds germinated. […] Germination was scored by the emergence of a radicle (>1 mm). The number of ‘cotyledon opening’ of seedlings at five days after sowing were counted and recorded. […]

Arabidopsis thaliana [2] = test: Effect of ABA on seed germination (radicle emergence >1 mm); format: in vivo
Procedure: as §1, §2

AtNCED3 = test: RNA gel blot analysis of response to ABA treatment; format: in vivo, Arabidopsis thaliana; settings: 10 μM ABA up to 24 hour; both wild-type and 35S::XERICO plants
Procedure: (a) RNA gel blot analysis showing a response to ABA. Wild-type (WT) and 35S::XERICO plants were grown on MS nutrient agar media for 10 days and then treated with 10 μM of ABA for up to 24 hour. Total RNA was isolated at the indicated times after treatment. Each lane was loaded with 10 μg total RNA. The RNA blot was hybridized with [^32P]-labeled gene specific probes for AtNCED3 (SEQ ID NO:452), AtCYP707A2 (SEQ ID NO:428) and RD29a (SEQ ID NO:386). Probing with Actin 8 (SEQ ID NO:455) was used as a RNA loading control. (b) RNA gel blot analysis in response to drought treatment. Wild-type (WT) and 35S::XERICO plants were grown on MS medium for 14 days and then dehydrated (see, EXAMPLE I).
Total RNA was extracted using the Trizol reagent method (Gibco-BRL, Gaithersburg, Md.). For northern blot analysis, 10 μg of total RNA from each sample was denatured and separated using a 1% agarose-formaldehyde gel. RNA was transferred onto a Hybond-N+ membrane (Stratagene, La Jolla, Calif.) by capillary action. Gene-specific probes were prepared by PCR and labeled with [^32P]-dCTP using a Prime-it II Random Primer Labeling kit (Stratagene, La Jolla, Calif.). […]

XERICO = test: Expression of XERICO upon ABA treatment; format: in vivo, Arabidopsis thaliana; settings: ABA 10 μM; up to 3-hours post-treatment
Procedure: Total RNA was extracted using the Trizol reagent method (Gibco-BRL, Gaithersburg, Md.). For northern blot analysis, 10 μg of total RNA from each sample was denatured and separated using a 1% agarose-formaldehyde gel. RNA was transferred onto a Hybond-N+ membrane (Stratagene, La Jolla, Calif.) by capillary action. Gene-specific probes were prepared by PCR and labeled with [^32P]-dCTP using a Prime-it II Random Primer Labeling kit (Stratagene, La Jolla, Calif.). Primers used in this analysis were following: XERICO (forward; SEQ ID NO:439, 5′-[…]-3 and reverse; SEQ ID NO:440, 5′-[…]-3′), AtNCED3 (forward, SEQ ID NO:441, 5′-[…]-3′ and reverse; SEQ ID NO:442, 5′-[…]-3′), AtCYP707A2 (forward; SEQ ID NO:443, 5′-[…]-3′ and reverse; SEQ ID NO:444, 5′-[…]-3′), RD29a (forward; SEQ ID NO:445, 5′-[…]-3′ and reverse; SEQ ID NO:446, 5′-[…]-3′), and Actin 8 (forward; SEQ ID NO:447, 5′-[…]-3′ and reverse; SEQ ID […], 5′-[…]-3′). Hybridization was carried out using ULTRAhyb® according to the manufacturer's instructions (Ambion, Austin, Tex.), and a Kodak Biomax film (Sigma) was exposed to the blot. An Actin 8 gene (SEQ ID NO:457) or ethidium bromide-stained ribosomal RNA was used as a loading control.

AtTLP9 = target: T1, AtTLP9 (Arabidopsis thaliana, UniProt Q9SQU1); test: Yeast two-hybrid screening; format: binding; settings: yeast AH109; truncated XERICO without transmembrane domain as bait
T1 construct: expressed in transfected cells; host or cells: yeast strain AH109
T1 sequence (Q9SQU1 1-380): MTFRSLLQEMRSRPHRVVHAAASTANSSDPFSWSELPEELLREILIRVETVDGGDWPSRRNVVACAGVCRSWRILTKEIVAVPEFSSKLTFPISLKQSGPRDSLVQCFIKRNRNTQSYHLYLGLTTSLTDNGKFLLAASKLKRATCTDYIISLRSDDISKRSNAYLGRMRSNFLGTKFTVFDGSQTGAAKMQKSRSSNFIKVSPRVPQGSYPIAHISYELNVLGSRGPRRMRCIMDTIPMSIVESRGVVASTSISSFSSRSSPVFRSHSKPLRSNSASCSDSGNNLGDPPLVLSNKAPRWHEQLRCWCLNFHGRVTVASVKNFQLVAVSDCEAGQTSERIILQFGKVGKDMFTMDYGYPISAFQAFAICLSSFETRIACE
Procedure: (§3) Two-hybrid screening was performed using the BD Matchmaker™ library construction and screening kit (Clonetech, Palo Alto, Calif.); pGADT7 was used as the base for a GAL4 activation domain (AD) vector and pGBKT7 was used for a GAL4 DNA-binding domain (DNA-BD) vector (pGADT7 and pGBKT7 were obtained from “BD Matchmaker Library Construction & Screening Kits” (Clontech, Palo Alto, Calif.)). The yeast strain AH109 (leu^−, trp^−, Ade^−, his^−) (obtained from “BD Matchmaker Library Construction & Screening Kits (Clontech, Palo Alto, Calif.)) with chromosomally integrated reporter genes lacZ and HIS under the control of the GAL1 promoter activated by the GAL4 transcription factor was used to host all constructs. Truncated XERICO cDNA without a transmembrane domain (SEQ ID NO: 451) was amplified by PCR using primers 5′-[…]-3′ (forward; SEQ ID NO:449) and 5′-[…]-3′ (reverse; SEQ ID NO:450) designed to contain EcoRI and PstI site, respectively. The amplified PCR product was digested with EcoRI and PstI, and subcloned into pGBKT7 as a fusion to the DNA binding domain of GAL4 and verified by sequencing. The pGBKT7/XERICO vector was used as a bait to screen an Arabidopsis thaliana cDNA library in pGADT7 as a fusion to the activation domain of GAL4. […]

AtUBC8 = target: T2, AtUBC8 (Arabidopsis thaliana, UniProt P35131); test: Yeast two-hybrid screening; format: binding; settings: yeast AH109; truncated XERICO without transmembrane domain as bait
T2 construct: expressed in transfected cells; host or cells: yeast strain AH109
Procedure: as §3

T2 sequence (P35131 whole entry, the tested form may be a part): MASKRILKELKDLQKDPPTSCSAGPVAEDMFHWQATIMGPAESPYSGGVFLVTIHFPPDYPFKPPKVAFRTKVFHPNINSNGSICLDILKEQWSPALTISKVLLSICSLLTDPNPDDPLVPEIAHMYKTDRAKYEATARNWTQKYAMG

Molecule	early seedling growth (Arabidopsis thaliana [1]; 0.1 μM exogenous ABA, three independent lines of 35S::XERICO plants, compared to wild-type)	cotyledon opening (Arabidopsis thaliana [1]; 1 μM ABA, five days after sowing, 35S::XERICO plants)	plants with opened cotyledons (Arabidopsis thaliana [1]; 1 μM ABA, five days after sowing, wild-type plants)	plants germinated (Arabidopsis thaliana [2]; 0.1 μM ABA, 1.5 day after sowing, 35S::XERICO plants) [%]	seeds germinated (Arabidopsis thaliana [2]; 0.1 μM ABA, 1.5 day after sowing, wild-type seeds) [%]	plants failed to germinate (Arabidopsis thaliana [2]; 1.0 μM ABA, prolonged incubation, 35S::XERICO plants)	transcripts of AtNCED3 (AtNCED3)	expression of XERICO (XERICO)	interaction with AtTLP9 (AtTLP9)	interaction with AtUBC8 (AtUBC8)
CC1=CC(=O)CC(C)(C)[C@@]1(O)/C=C/C(C)=C\C(=O)O [ABA, abscisic acid]	arrested immediately after germination	did not develop a cotyledon	approximately 80%	13	43	more than 20%	clearly increased	no significant changes		
B1									interacts	interacts
